Assays:
[1] = test system: caspase 8; test: Western blot of caspase 8 activation; assay type: cell-based, human
Description: (§1) The present inventors examined whether apoptosis signaling cascade is triggered with the elevation of TNFRI expression induced by FUT treatment, using caspase 8 as an indicator. Cytoplasmic fraction was prepared from the human pancreas cancer cell line MDAPanc-28 treated with various concentrations of FUT for 24 hours. Western blot was performed and subjected to the detection with anti-caspase 8 antibody (Santa Cruz Biotechnology) (FIG. 6-a). Western blot was performed to examine temporal changes in the expression of caspase 8, p-FADD, Bid and jBid under a constant concentration of FUT (80 μg/ml) at short intervals from 0 to 24 hours of treatment (FIGS. 6-b, 6-c and 6-d). Anti-FADD antibody was obtained from Santa Cruz Biotechnology and anti-Bid antibody was obtained from BD Pharmingen.
(§2) After the following treatment on the human pancreas cancer cell line MDAPanc-28, plasmatic compartment was prepared and Western blot was performed to examine the expression of phosphorylated FADD, caspase 8, NF-κB and IκBα. […] The same was true for IκBα expression (FIG. 7-c).

[2] = molecular target: T1, IKK2 (Homo sapiens, UniProt O14920); test: IKK immunoprecipitation kinase assay and Western blot after FUT treatment of cells; assay type: cell-based
T1 construct: endogenous in cells; host or cells: MDAPanc-28 (human pancreas cancer cell line)
T1 sequence (O14920 whole entry): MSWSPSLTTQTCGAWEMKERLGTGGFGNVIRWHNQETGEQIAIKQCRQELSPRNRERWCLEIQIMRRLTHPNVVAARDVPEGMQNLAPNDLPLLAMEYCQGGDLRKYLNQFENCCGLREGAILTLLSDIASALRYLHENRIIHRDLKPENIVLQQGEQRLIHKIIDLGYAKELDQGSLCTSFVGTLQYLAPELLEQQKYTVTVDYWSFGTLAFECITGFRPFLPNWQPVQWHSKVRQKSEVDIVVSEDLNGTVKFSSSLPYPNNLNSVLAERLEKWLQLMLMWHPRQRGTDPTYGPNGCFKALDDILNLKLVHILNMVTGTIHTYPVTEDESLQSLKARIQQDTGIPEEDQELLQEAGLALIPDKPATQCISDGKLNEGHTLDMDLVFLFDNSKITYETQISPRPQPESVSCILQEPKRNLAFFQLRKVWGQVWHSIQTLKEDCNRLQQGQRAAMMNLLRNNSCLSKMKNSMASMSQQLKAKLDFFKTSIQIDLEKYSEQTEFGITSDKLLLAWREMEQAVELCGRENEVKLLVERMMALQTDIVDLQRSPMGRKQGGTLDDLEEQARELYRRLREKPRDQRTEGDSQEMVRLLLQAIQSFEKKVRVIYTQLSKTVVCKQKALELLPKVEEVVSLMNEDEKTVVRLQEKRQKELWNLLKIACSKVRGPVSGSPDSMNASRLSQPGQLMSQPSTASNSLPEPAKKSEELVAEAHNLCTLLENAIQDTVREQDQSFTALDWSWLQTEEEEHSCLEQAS
T1 sequence (O15111 whole entry partner): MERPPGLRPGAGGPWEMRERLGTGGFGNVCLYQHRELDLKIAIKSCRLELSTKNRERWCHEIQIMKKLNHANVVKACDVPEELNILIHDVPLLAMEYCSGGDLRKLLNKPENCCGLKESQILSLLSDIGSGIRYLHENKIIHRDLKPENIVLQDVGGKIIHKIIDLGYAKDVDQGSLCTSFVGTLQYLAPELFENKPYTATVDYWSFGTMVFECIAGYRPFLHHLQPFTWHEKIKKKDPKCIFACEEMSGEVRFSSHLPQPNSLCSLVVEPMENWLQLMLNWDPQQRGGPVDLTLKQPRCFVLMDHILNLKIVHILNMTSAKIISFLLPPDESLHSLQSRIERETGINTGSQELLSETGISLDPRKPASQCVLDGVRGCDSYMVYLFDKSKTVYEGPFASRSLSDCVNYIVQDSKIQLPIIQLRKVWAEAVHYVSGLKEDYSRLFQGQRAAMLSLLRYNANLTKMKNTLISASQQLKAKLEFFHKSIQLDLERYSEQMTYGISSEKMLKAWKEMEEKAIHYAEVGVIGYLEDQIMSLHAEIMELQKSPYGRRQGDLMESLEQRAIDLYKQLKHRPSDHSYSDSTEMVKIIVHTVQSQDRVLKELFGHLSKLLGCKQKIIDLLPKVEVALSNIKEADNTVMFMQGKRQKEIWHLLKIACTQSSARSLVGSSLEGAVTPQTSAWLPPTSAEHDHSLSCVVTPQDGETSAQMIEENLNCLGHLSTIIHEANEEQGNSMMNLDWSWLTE
T1 sequence (Q9Y6K9 whole entry partner): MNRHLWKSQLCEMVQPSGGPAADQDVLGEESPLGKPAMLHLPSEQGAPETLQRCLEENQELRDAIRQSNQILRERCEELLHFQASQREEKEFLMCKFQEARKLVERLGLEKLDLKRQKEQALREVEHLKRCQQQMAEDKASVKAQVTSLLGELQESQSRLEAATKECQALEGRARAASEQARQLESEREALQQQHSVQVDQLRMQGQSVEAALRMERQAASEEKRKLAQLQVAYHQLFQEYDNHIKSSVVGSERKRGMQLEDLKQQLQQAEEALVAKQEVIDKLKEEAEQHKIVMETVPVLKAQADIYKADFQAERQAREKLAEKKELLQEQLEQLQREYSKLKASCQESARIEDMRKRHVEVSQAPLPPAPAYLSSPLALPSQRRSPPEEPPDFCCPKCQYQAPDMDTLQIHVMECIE
Description: (§3) After FUT treatment, the human pancreas cancer cell line […]-28 was rinsed with ice-cold PBS to prepare 800 μg of cytoplasmic fraction. After adding glutathione sepharose beads (Amersham Pharmacia Biotech), the sample was invertedly mixed at 4° C. for 3 hours to remove non-specific absorption fractions. 4 μg of anti-IKK1/2 antibody (Santa Cruz Biotechnology) were added to the supernatant for reaction at 4° C. overnight. After adding glutathione sepharose beads, the sample was further mixed at 4° C. for 3 hours. The beads containing bound immunocomplex were rinsed twice with PBS and then subjected to immunoprecipitation and measurements of enzyme activity. To conduct the measurements of enzyme activity, the above mentioned beads were rinsed with kinase buffer (25 mM HEPES containing 150 mM NaCl, 25 mM beta-glycerophosphate and 10 mM MgCl2) to perform enzyme reaction. 5 uCi of ^32P-labeled y-ATP and 1 μg of the substrate GST-IκBα were reacted in the kinase buffer for 30 minutes at 37° C. The reaction was terminated by adding SDS sample buffer. The sample was analyzed by SDS-PAGE followed by autoradiography for detection.

[3] = molecular target: T2, IKK1 (Homo sapiens, UniProt O15111); test: as above; assay type: cell-based
T2 construct: endogenous in cells; host or cells: MDAPanc-28 (human pancreas cancer cell line)
T2 sequence (O15111 whole entry): as the sequence (O15111 whole entry partner) above
T2 sequence (O14920 whole entry partner): as the sequence (O14920 whole entry) above
T2 sequence (Q9Y6K9 whole entry partner): as the sequence (Q9Y6K9 whole entry partner) above
Description: as §3

[4] = test system: FADD; test: Western blot of FADD phosphorylation; assay type: cell-based, human
Description: as §1, §2

[5] = test system: human pancreas cancer cell line MDAPanc-28; test: Matrigel infiltration assay; assay type: cell-based; settings: MDAPanc-28 pretreated with 80 μg/ml FUT for 24 hours, 22-hour incubation in matrigel-coated chamber
Description: A matrigel infiltration assay was performed to examine an inhibitory effect on infiltration in the human pancreas cancer cell line MDAPanc-28 by FUT treatment. Cells treated with 80 μg/ml of FUT for 24 hours and untreated cells were respectively inoculated to a matrigel-coated chamber at a concentration of 20000 cells per well for a 22-hour incubation at 37° C. either in the presence or absence of 80 μg/ml of FUT. The numbers of infiltrated cells were then counted under the microscope after Wright-Giemsa staining according to the method generally known.

[6] = test system: MMP-2; test: Western blot of MMP-2 expression; assay type: cell-based, human; settings: MDAPanc-28 cytoplasmic fraction, 0 or 80 μg/ml FUT
Description: Cytoplasmic fraction was prepared from the human pancreas cancer cell line […]-28 treated with either 0 μg/ml or 80 μg/ml of FUT. Western blot was performed for the obtained cytoplasmic proteins to examine MMP-2 and MMP-9 expression. More specifically, the experiment was performed by the method described in Example 2. Rabbit polyclonal anti-MMP-2 antibody, goat polyclonal anti-MMP-9 antibody and mouse anti-B-actin antibody (Santa Cruz Biotechnology, Inc.) were used for detection.

[7] = test system: IκBα; test: Western blot of IκBα / phosphorylated IκBα in cytoplasm extracts; assay type: cell-based, human
Description: The human pancreas cancer cell line MDAPanc-28 was treated with various concentrations of FUT to examine the effect on IκBα. Cytoplasm extracts were extracted from cells treated with various concentrations of FUT according to the method generally known and Western blot was performed to detect each protein. More specifically, each lane was loaded with 50 μg of protein to perform electrophoresis. The gel was then transferred to a PVDF membrane (Osmonics). After blocking with PBS containing 5% nonfat milk for 2 hours at room temperature, primary antibody (anti-IκBα antibody) diluted with PBS containing 0.1% nonfat milk was added for reaction at 4° C. overnight. After rinsing with PBS, the PVDF membrane was then reacted with secondary antibody solution diluted with PBS containing 0.1% nonfat milk for 2 hours at room temperature. Proteins were detected by using Lumi-Light Western Blotting Substrate.

[8] = test system: Murine fiber cells; test: Effect on survival rate of normal cells; assay type: cell-based; settings: 80 μg/ml
Text: Therefore, the present inventors next examined the effect of FUT treatment on normal cells. Murine fiber cells were used as normal cells.

[9] = test system: NF-κB; test: Gel shift assay of gemcitabine-induced NF-κB activation; assay type: cell-based, human; settings: MDAPanc-28, pretreatment 3 hours then gemcitabine 3 hours
Description: At the same time, the present inventors also made a comparison with the other NF-κB inhibitors PS1145 and PS341. […] Subsequently, a gel shift assay was performed to examine the effect on NF-κB activation.

[10] = test system: PEA3; test: PEA3 expression after FUT treatment; assay type: cell-based, human; settings: MDAPanc-28, over time
[11] = MDAPanc-28, FUT 80 μg/ml pretreatment then TNF-α 5 ng/ml 24 hours, compared to FUT alone
[12] = MDAPanc-28, FUT 80 μg/ml, 0 to 24 hours
[13] = MDAPanc-28 cytoplasmic fraction, before and after FUT treatment
[14] = immunoprecipitate from FUT-treated MDAPanc-28, substrate GST-IκBα

- expression level of IKK2 [2, 13]: remain intact
- expression level of IKK1 [3, 13]: remain intact
SMILES: N=C(N)c1ccc2cc(OC(=O)c3ccc(N=C(N)N)cc3)ccc2c1 [FUT, 6-amidino-2-naphthyl p-guanidinobenzoate dimethanesulfonate]
- caspase 8 activation with TNF-α stimulation [1, 11]: enhanced FADD phosphorylation and caspase 8 activation
- caspase 8 activation over time [1, 12]: later on promoted caspase 8 activation
- caspase 8 activation ([1]; MDAPanc-28, various concentrations of FUT for 24 hours): activated by FUT in a concentration-dependent manner
- caspase 8 activation in TNFRI-downregulated cells ([1]; cells with TNFRI expression downregulated using siRNA, after FUT treatment): nor caspase 8 activation
- enzyme activity of IKK2 [2, 14]: reduces the enzyme activities of IKK1 and IKK2
- enzyme activity of IKK1 [3, 14]: reduces the enzyme activities of IKK1 and IKK2
- FADD phosphorylation with TNF-α stimulation [4, 11]: enhanced FADD phosphorylation
- FADD phosphorylation [4, 12]: promoted FADD phosphorylation overtime
- infiltration (number of infiltrated cells) [5]: significant inhibitory effect on infiltration
- MMP-2 expression [6]: inhibited by FUT in a concentration-dependent manner
- level of phosphorylated IκBα in the cytoplasm ([7]; MDAPanc-28, over time after adding FUT): declines overtime
- level of IκBα in the cytoplasm over time ([7]; MDAPanc-28, time after addition of FUT up to 48 hours): increases along the progression of NF-κB inactivation up to 24 hours after addition of FUT and then is restored to a steady-state level after 48 hours
- level of IκBα in the cytoplasm ([7]; MDAPanc-28, various concentrations of FUT): increased by FUT in a concentration-dependent manner
- cell survival rate of normal cells [8]: had no effect on cell survival rate
- effect on gemcitabine-induced activation of NF-κB [9]: had an inhibitory effect on gemcitabine-induced activation of NF-κB
- inhibitory effect on gemcitabine-induced NF-κB activation compared among FUT, PS1145 and PS341 [9]: most significant
- PEA3 expression [10]: increased PEA3 expression overtime

— patent US20100015249A1, “Antitumor agent containing 6'-amidino-2'-naphthyl 4-guanidinobenzoate or salt thereof” (priority 2005, published 2010)
